Patent publication US7671042B2, “Pharmaceutical compositions containing cyclodextrins and taxoids” (priority 1997, dated 2010)
Read-outs that look alike come from different tables or passages of the source.

Key:
[1] = aqueous
beagle dogs = assay: Cardiovascular and respiratory effects following intravenous administration in anaesthetised beagle dogs; format: in vivo, beagle dog
Method: The following parameters were recorded or derived and served as indicators of the functional status of the various elements within the cardiovascular and respiratory systems. The units of measurement are stated in parenthesis.
Anaesthesia was induced by i.v. injection of sodium thiopentone and maintained i.v. by a mixture of α-chloralose and pentobarbitone sodium given as required. Body temperature was maintained.
The trachea was cannulated and the canule connected to a pneumotach screen to allow measurement of tidal volume (ml) and the derived parameters of respiration rate (br/min) and minute volume (ml). Catheters were introduced into the right femoral artery and a cephalic vein to facilitate measurements of blood pressure and the administration of vehicle, test substances and anaesthetic respectively. The femoral artery was connected to a heparin/saline filled pressure transducer, coupled to a Grass 7E polygraph. […]
Following a 30 minute stabilization period, the vehicle was administered i.v. at a dose volume of 7.0 ml/kG over a period of 15 minutes. […] The parameters were monitored for a least 45 minutes from the start of infusion. […]
All parameters including high resolution (50 mm/sec) recordings of the ECG were measured at 5 minute intervals during the stabilization period and at 0.5, 1, 2 and 5 minutes intervals post-dose following vehicle and drug administration. […]

[2] = cited from earlier work

## CC(=O)O[C@H]1C(=O)[C@@]2(C)[C@H]([C@H](OC(=O)c3ccccc3)[C@]3(O)C[C@H](OC(=O)[C@H](O)[C@@H](NC(=O)c4ccccc4)c4ccccc4)C(C)=C1C3(C)C)[C@]1(OC(C)=O)CO[C@@H]1C[C@@H]2O [paclitaxel]
[1]; 2% w/v acetyl-γ-cyclodextrin
  Dissolved Paclitaxel: 4.0 µg/mL
[1]; 5% w/v acetyl-γ-cyclodextrin
  Dissolved Paclitaxel: 8.8 µg/mL
[1]; 10% w/v acetyl-γ-cyclodextrin
  Dissolved Paclitaxel: 25.0 µg/mL
[1]; 20% w/v acetyl-γ-cyclodextrin
  Dissolved Paclitaxel: 48.0 µg/mL
[1]; 40% w/v acetyl-γ-cyclodextrin
  Dissolved Paclitaxel: 170 µg/mL
[1]; 40% w/v acetyl-γ-cyclodextrin, listed as Paclitaxel
  Dissolved Paclitaxel: 170.0 µg/mL
Beagle dogs; 6 and 60 mg/m^2 in Cremophor ELP:ethanol 1:1, i.v., animals 1 and 2, administration discontinued
  outcome of i.v. administration: death of the animals
Beagle dogs; dog, in vivo, iv
  reaction to intravenous administration: anaphylactic type reaction
[2]; ambient temperature
  aqueous solubility: about 0.0005 mg/ml
[2]; room temperature
  aqueous solubility: about 0.5 μg/ml
